Data reported in ChEMBL document CHEMBL4627344, “Synthesis, biological evaluation and virtual screening of some acridone derivatives as potential anticancer agents” (2020).

How the values were obtained:
Assay type in all cases: functional
MDA-MB-231 = experiment: Antiproliferative activity against human MDA-MB-231 cells assessed as inhibition of cell growth measured after 48 hrs by SRB assay; conditions: MDA-MB-231, 48 h
BT-549 [1] = experiment: Antiproliferative activity against human BT549 cells assessed as inhibition of cell growth at 10 uM measured after 48 hrs by SRB assay relative to control; conditions: BT-549, 48 h, read-out: GI
SNB-75 = experiment: Antiproliferative activity against human SNB75 cells assessed as inhibition of cell growth measured after 48 hrs by SRB assay; conditions: SNB-75, 48 h
NCI/ADR-RES = experiment: Antiproliferative activity against human NCI/ADR-RES cells assessed as inhibition of cell growth measured after 48 hrs by SRB assay
HCT-116 = experiment: Antiproliferative activity against human HCT116 cells assessed as inhibition of cell growth at 10 uM measured after 48 hrs by SRB assay relative to control; conditions: HCT-116, 48 h, read-out: GI
NCI-H226 = experiment: Antiproliferative activity against human NCI-H226 cells assessed as inhibition of cell growth at 10 uM measured after 48 hrs by SRB assay relative to control; conditions: NCI-H226, 48 h, read-out: GI
MOLT-4 = experiment: Antiproliferative activity against human MOLT4 cells assessed as inhibition of cell growth measured after 48 hrs by SRB assay; conditions: MOLT-4, 48 h
SW-620 [2] = experiment: Antiproliferative activity against human SW620 cells assessed as inhibition of cell growth at 10 uM measured after 48 hrs by SRB assay relative to control; conditions: SW-620, 48 h, read-out: GI
SN12C = experiment: Antiproliferative activity against human SN12C cells assessed as inhibition of cell growth at 10 uM measured after 48 hrs by SRB assay relative to control; conditions: read-out: GI
HOP-62 = experiment: Antiproliferative activity against human HOP62 cells assessed as inhibition of cell growth measured after 48 hrs by SRB assay; conditions: HOP-62, 48 h
PC-3 = experiment: Antiproliferative activity against human PC3 cells assessed as inhibition of cell growth at 10 uM measured after 48 hrs by SRB assay relative to control; conditions: PC-3, 48 h, read-out: GI
RXF 393 [3] = experiment: Antiproliferative activity against human RXF393 cells assessed as inhibition of cell growth measured after 48 hrs by SRB assay; conditions: RXF 393, 48 h
OVCAR-8 = experiment: Antiproliferative activity against human OVCAR8 cells assessed as inhibition of cell growth at 10 uM measured after 48 hrs by SRB assay relative to control; conditions: OVCAR-8, 48 h, read-out: GI
SNB-19 = experiment: Antiproliferative activity against human SNB19 cells assessed as inhibition of cell growth measured after 48 hrs by SRB assay; conditions: SNB-19, 48 h
M14 = experiment: Antiproliferative activity against human M14 cells assessed as inhibition of cell growth at 10 uM measured after 48 hrs by SRB assay relative to control; conditions: M14, 48 h, read-out: GI
SW-620 [4] = experiment: Antiproliferative activity against human SW620 cells assessed as inhibition of cell growth measured after 48 hrs by SRB assay; conditions: SW-620, 48 h
CAKI-1 = experiment: Antiproliferative activity against human CAKI-1 cells assessed as inhibition of cell growth at 10 uM measured after 48 hrs by SRB assay relative to control; conditions: CAKI-1, 48 h, read-out: GI
UO-31 = experiment: Antiproliferative activity against human UO31 cells assessed as inhibition of cell growth measured after 48 hrs by SRB assay; conditions: UO-31, 48 h
RXF 393 [5] = experiment: Antiproliferative activity against human RXF393 cells assessed as inhibition of cell growth at 10 uM measured after 48 hrs by SRB assay relative to control; conditions: RXF 393, 48 h, read-out: GI
BT-549 [6] = experiment: Antiproliferative activity against human BT549 cells assessed as inhibition of cell growth measured after 48 hrs by SRB assay; conditions: BT-549, 48 h
SF-268 = experiment: Antiproliferative activity against human SF268 cells assessed as inhibition of cell growth measured after 48 hrs by SRB assay; conditions: SF-268, 48 h
Malme-3M = experiment: Antiproliferative activity against human MALME-3M cells assessed as inhibition of cell growth measured after 48 hrs by SRB assay
TK-10 = experiment: Antiproliferative activity against human TK10 cells assessed as inhibition of cell growth measured after 48 hrs by SRB assay; conditions: TK-10, 48 h
OVCAR-4 = experiment: Antiproliferative activity against human OVCAR4 cells assessed as inhibition of cell growth measured after 48 hrs by SRB assay; conditions: OVCAR-4, 48 h
HOP-92 = experiment: Antiproliferative activity against human HOP92 cells assessed as inhibition of cell growth measured after 48 hrs by SRB assay; conditions: HOP-92, 48 h

Compound	GI50 (MDA-MB-231) [µM]	inhibition of growth at 10 µM (BT-549 [1]) [%]	GI50 (SNB-75) [µM]	GI50 (NCI/ADR-RES) [µM]	inhibition of growth at 10 µM (HCT-116) [%]	inhibition of growth at 10 µM (NCI-H226) [%]	GI50 (MOLT-4) [µM]	inhibition of growth at 10 µM (SW-620 [2]) [%]	inhibition of growth at 10 µM (SN12C) [%]	GI50 (HOP-62) [µM]	inhibition of growth at 10 µM (PC-3) [%]	GI50 (RXF 393 [3]) [µM]	inhibition of growth at 10 µM (OVCAR-8) [%]	GI50 (SNB-19) [µM]	inhibition of growth at 10 µM (M14) [%]	GI50 (SW-620 [4]) [µM]	inhibition of growth at 10 µM (CAKI-1) [%]	GI50 (UO-31) [µM]	inhibition of growth at 10 µM (RXF 393 [5]) [%]	GI50 (BT-549 [6]) [µM]	further results
COc1ccc2nc3c(cc2c1)C(=O)CC(C(F)(F)F)C3 (stereo unspecified)	3.98	39.1	2.16	0.336	88.1	60.2	0.0882	58.5	57.9	3.61	67	0.562	60	3.61	91.3	3.45	63	2	102	–	–
COc1ccc2nc3c(cc2c1)C(=O)CC(c1ccccc1)C3 (stereo unspecified)	3.42	48.3	0.572	0.408	88.9	73.5	0.431	82.2	59.3	1.96	71.2	0.44	61	2.62	90.7	0.747	68.7	0.543	103	2.21	–
O=C1CC(c2ccccc2)Cc2nc3ccc(Br)cc3cc21 (stereo unspecified)	0.598	93.5	0.21	0.0669	94.4	75.9	0.0537	74.9	67.8	0.354	68	0.208	75.9	0.434	89.8	0.36	69.3	0.64	71.6	0.685	GI50 (SF-268): 3.45 µM; GI50 (Malme-3M): 0.0949 µM
O=C1CC(c2ccccc2)Cc2nc3ccc(Cl)cc3cc21 (stereo unspecified)	0.617	95.4	0.215	0.0644	94.5	79.2	0.0675	77	71.8	0.428	72.3	0.195	77.6	0.425	91	0.37	70.8	0.489	78.2	0.5	–
O=C1CC(c2ccccc2)Cc2nc3c(Br)cc(Br)cc3cc21 (stereo unspecified)	0.402	94.7	0.199	0.236	93.8	85.9	0.104	77.6	60.5	0.18	77.4	0.0916	96	0.406	94.7	0.0839	98.8	0.0795	70	0.541	GI50 (TK-10): 0.7 µM; GI50 (OVCAR-4): 1.41 µM; GI50 (SF-268): 0.167 µM; GI50 (Malme-3M): 0.119 µM; GI50 (HOP-92): 0.0668 µM
